# Where “and” joins values, the source holds several entries; their conditions need not be identical. Identical values can stand only once.
# Key:
# [1] = test system: Pasteurella piscicida KGP86041; type: cell-based
# Pasteurella piscicida = experiment: microbe, parasite or virus in culture; type: cell-based
# [2] = Preservability of potato salad (Test Example 6); conditions: for Living bacteria: at end of storage life
# Procedure: Bacterial substance UFC-N11 was added to potato (300 g), carrot (50 g), sliced onion (60 g), sliced cucumber (80 g), salad oil (15 g), vinegar (12. 5 g), NaCl (2 g), pepper (0.05 g) and mayonnaise (100 g) (total: ca 620 g) to prepare potato salad. Test samples (20 g/group) were packed in 200 ml mayonnaise bottles, sealed and examined for the preservability at 30° C. Potato and carrot were boiled and cut into appropriate size before use. The period until emission of a putrid smell is defined as effective storage life. General living bacterial number of samples at that time was also measured.
# [3] = Storage life of steamed Chinese noodles (Test Example 5)
# Procedure: After kneading for 10 minutes. the product was rolled and cut with cutting edge (#10) to give noodles. The resulting noodles were steamed at the temperature higher than 98° C. for 6 minutes, washed with water, packed in polyethylene packages (each weighing 40 g) and heated at 85° C. for 30 minutes. The obtained packages containing Chinese noodles (10 bags/group) were maintained at 30° C. and the change in appearance with time was observed and preservation effect was evaluated according to the following evaluation scale. The values shown in the following Table are averaged evaluation levels of degeneration.
# [4] = Solubility in various solvents
# [5] = test system: Pseudomonas syringae PV lachrymans NIAES 1316; experiment: Evaluation of activity against the bacterial spot of cucumber (Test Example 3); type: in vivo; conditions: 50 ppm
# Procedure: Cucumber(Green tokiwa) was used for the test. Potted cucumber plants (2 leaf stage) were sprayed with sufficient amount of 50 ppm solution of bacterial substance UFC-N11 (dissolved in 0.05% aqueous sodium bicarbonate), air-dried, and spray-inoculated 10^8 /ml suspension of Pseudomonas Syringae PV lachrymans NIAES 1316, cultured on Wakimoto medium for 3 days, on both sides of leaves. For the control, an experiment was carried out using a solution without the substance N11 in the same manner as described above. After inoculation, the plants were maintained at 28° C. for 24 hours and maintained in a glass house until the day of evaluation. Six days after inoculation, percentage of spots area affected on the first and second seed leaf was observed and protection value was calculated according to the following formula: [formula] The experiment was repeated using Cu(OH)2 (Kosaid) 83% wettable powder (produced by Hokko chemical Industry Co. Ltd.) as a positive reference. In this case CaCO3 (Kurefunon) (produced by Shiraishi Calcium) was added (×200) in order to reduce damage.
# [6] = Storage life of kamaboko, rot-proof property (Test Example 4)
# Procedure: Fish paste was prepared by adding NaCl (2.5%), chemical seasoning (0.8%), starch (5%) and ice water (10%) based on frozen surimi of walleye pollack (4 kg) and cutting by a silent cutter for 10 minutes. Predetermined amount of bacterial substance UFC-N11 based on the resulting fish paste (2 kg) was added and completely mixed in a small mixer for 5 minutes. About 100 g fish paste were enclosed with polyvinylidene chloride film (spread width:45 mm), boiled at 90° C. for 30 minutes, quenched, left overnight and then tested for rot-proof property.
# The test was conducted as follows. As the complete package products, 10 pieces/group of kamaboko processed by casing method samples and, as the simplified package products, 10 pieces/group prepared by peeling off the casing under sterilized condition, cutting into 2 round slices (thickness: 10 mm) by a sterilized knife and placing in a sterilized plastic Petri dish. were placed in a thermostatic chamber at 30° C. and evaluated by macroscopically observation. The evaluation uses five-level scale shown below. The period until the average evaluation value of 1 is attained is defined as the storage life.
# Campylobacter fetus = type: cell-based
# Procedure: (§1) The minimum growth inhibitory concentration (MIC) values of bacterial substance UFC-N11 to various kinds of bacteria determined according to the conventional method were measured in the conventional manner.
# Proteus vulgaris OX-19 = type: cell-based
# Procedure: as §1
# Pseudomonas aeruginosa = type: cell-based
# Procedure: as §1
# [7] = test system: Corynebacterium michiganence PV michiganene NIAES 1044; type: cell-based; conditions: Corynebacterium michiganence NIAES 1044 (bacterial canker of tomatoes)
# Procedure: as §1
# [8] = test system: Ervinia carotovara subsp. carotovora NIAES 1393; type: cell-based; conditions: Ervinia carotovara NIAES 1393 (black leg of potatoes)
# Procedure: as §1
# Klebsiella pneumoniae = type: cell-based
# Procedure: as §1
# [9] = test system: Xandomonas campestris FV Pruni 7855SMR; type: cell-based; conditions: Xandomonas campestris FV Pruni 7855SMR (bacterial spot of peach)
# Procedure: as §1
# [10] = test system: Pseudomonas syringae PV Mori NIAES 1020; type: cell-based; conditions: Pseudomonas syringae PV Mori NIAES 1020 (bacterial rugose)
# Procedure: as §1
# Campylobacter jejuni = type: cell-based
# Procedure: as §1
# [11] = test system: Salmonella enteritidis 1891; type: cell-based
# Procedure: as §1
# Bacillus subtilis 6633 = type: cell-based
# Procedure: as §1
# [12] = test system: Enterobacter cloacae IID977; type: cell-based
# Procedure: as §1
# [13] = test system: Staphylococcus aureus 209-P; type: cell-based
# Procedure: as §1
# [14] = test system: Pseudomonas syringae PV lachrymans NIAES 1316; type: cell-based; conditions: Pseudomonas syringae PV lachrymans NIAES 1316 (angular leaf spot of cucumber)
# Procedure: as §1
# [15] = test system: Pseudomonas syringae PV tabaci NIAES 1075; type: cell-based
# Procedure: as §1
# Salmonella typhimurium = type: cell-based
# Procedure: as §1
# [16] = test system: Xandomonas campestris PV campestris NIAES 1152; type: cell-based; conditions: Xandomonas campestris PV campestris NIAES 1152 (black rot)
# Procedure: as §1
# [17] = test system: Escherichia coli NIHJ JC-2; type: cell-based
# Procedure: as §1
smiles,measurement,setting,value
CC=CC=CC=CC(=O)NC(CC(=O)NC(C(=O)C1C(=O)NC(=O)C1C)C(C)C)c1ccccc1 (stereo not drawn) [UFC-N11],MIC,[1],0.16 µg/mL
same,MIC,Pasteurella piscicida,0.31 µg/mL and 0.16 µg/mL
same,antibacterial activity,Pasteurella piscicida,excellent antibacterial activity
same,Living bacteria,[2]; 0.05 ppm,5.9e+06 g⁻¹
same,Storage life,"[2]; 0.05 ppm, pH 5.14, 30° C.",24 h
same,Living bacteria,[2]; 0.5 ppm,2.8e+07 g⁻¹
same,Storage life,"[2]; 0.5 ppm, pH 5.15, 30° C.",30 h
same,Living bacteria,[2]; 5.0 ppm,8.1e+06 g⁻¹
same,Storage life,"[2]; 5.0 ppm, pH 5.15, 30° C.",43 h
same,Living bacteria,[2]; 50 ppm,5.5e+07 g⁻¹
same,Storage life,"[2]; 50 ppm, pH 5.16, 30° C.",56 h
same,Storage life,"[3]; 0.1 ppm, pH of product 9.39, 30° C.",6.0 days
same,Storage life,"[3]; 1.0 ppm, pH of product 9.41, 30° C.",8.1 days
same,Storage life,"[3]; 10 ppm, pH of product 9.40, 30° C.",10.0 days
same,Storage life,"[3]; 50 ppm, pH of product 9.38, 30° C.",16.0 days
same,Storage life,"[3]; 100 ppm, pH of product 9.41, 30° C.",20.0 days
same,preservability of the heated and steamed Chinese noodles,[3]; upon addition of UFC-N11,remarkably improved
same,Solubility in various solvents,"[4]; n-hexane, chloroform, benzene and water",slightly soluble or insolbule
same,Solubility in various solvents,"[4]; pyridine, acetic acid, dimethyl sulfoxide, methanol, ethanol, acetone, ethyl acetate and dimethyl ether",soluble
same,Damage,[5]; cucumber plants,Nil
same,Protection,"[5]; sprayed before inoculation, 6 days",36.8
same,"Storage life, Complete package","[6]; 0.01 ppm, pH 7.06, 30° C.",5.0 days
same,"Storage life, simplified package","[6]; 0.01 ppm, pH 7.06, 30° C.",2.5 days
same,"Storage life, Complete package","[6]; 0.1 ppm, pH 7.06, 30° C.",7.0 days
same,"Storage life, simplified package","[6]; 0.1 ppm, pH 7.06, 30° C.",3.0 days
same,"Storage life, Complete package","[6]; 1.0 ppm, pH 7.05, 30° C.",9.0 days
same,"Storage life, simplified package","[6]; 1.0 ppm, pH 7.05, 30° C.",4.5 days
same,"Storage life, Complete package","[6]; 10 ppm, pH 7.05, 30° C.",14.0 days
same,"Storage life, simplified package","[6]; 10 ppm, pH 7.05, 30° C.",7.5 days
same,"Storage life, Complete package","[6]; 50 ppm, pH 7.04, 30° C.",18.0 days
same,"Storage life, simplified package","[6]; 50 ppm, pH 7.04, 30° C.",9.0 days
same,"Storage life, Complete package","[6]; 100 ppm, pH 7.06, 30° C.",24.0 days
same,"Storage life, simplified package","[6]; 100 ppm, pH 7.06, 30° C.",12.0 days
same,MIC,Campylobacter fetus,1.56 µg/mL
same,MIC,Proteus vulgaris OX-19,0.195 µg/mL
same,MIC,Pseudomonas aeruginosa,50 µg/mL
same,MIC,[7],6.25 µg/mL
same,MIC,[8],6.25 µg/mL
same,MIC,Klebsiella pneumoniae,12.5 µg/mL
same,MIC,[9],0.1 µg/mL
same,MIC,[10],25 µg/mL
same,MIC,Campylobacter jejuni,0.78 µg/mL
same,MIC,[11],0.78 µg/mL
same,MIC,Bacillus subtilis 6633,0.39 µg/mL
same,MIC,[12],25 µg/mL
same,MIC,[13],1.56 µg/mL
same,MIC,[14],6.25 µg/mL
same,MIC,[15],12.5 µg/mL
same,MIC,Salmonella typhimurium,6.25 µg/mL
same,MIC,[16],0.1 µg/mL
same,MIC,[17],1.56 µg/mL

# Source: patent publication US4868203A, “Bacterial substance and pharmaceutical composition thereof” (Kabushikikaisha Ueno Seiyaku Oyo Kenkyujo, priority 1986, dated 1989)
